Results: PubChem BioAssay (NCI)
Values joined by “and” are separate entries in the source; they are usually repeats but may differ in a detail not shown here. Identical values can stand only once.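 Cultured in 96-well plates, cells were exposed to test compound for 48 hours across five concentrations. At the GI50, growth is halved. The concentration for full growth arrest is given as TGI.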

Legend:
Assay in all cases: NCI tumour cell line growth inhibition, 48 h
DLD-1 colon = system: DLD-1 colon
HOP-18 NSCLC = system: HOP-18 NSCLC
SNB-78 CNS = system: SNB-78 CNS
DMS 114 small cell lung = system: DMS 114 small cell lung
RXF-631 renal = system: RXF-631 renal
LXFL 529 NSCLC = system: LXFL 529 NSCLC
DMS 273 small cell lung = system: DMS 273 small cell lung
XF 498 CNS = system: XF 498 CNS
MDA-N = system: MDA-N
SN12K1 renal = system: SN12K1 renal
P388 leukemia = system: P388 leukemia

| Structure (SMILES) | TGI (DLD-1 colon) | TGI (HOP-18 NSCLC) | TGI (SNB-78 CNS) | TGI (DMS 114 small cell lung) | TGI (LXFL 529 NSCLC) | TGI (DMS 273 small cell lung) | TGI (MDA-N) | further results |
| --- | --- | --- | --- | --- | --- | --- | --- | --- |
| O=C(CCN(C(=O)O)S(=O)(=O)c1ccc(NC(=O)c2ccccc2)cc1)Nc1ccccc1 | > 100 µM | > 100 µM | > 100 µM | > 68.5 µM | > 100 µM | > 82.4 µM |  | TGI (RXF-631 renal): > 100 µM; TGI (XF 498 CNS): > 100 µM |
| N=C(N)C1CN(CCc2c[nH]c3ccccc23)C(=O)NC1=O (stereo not given) |  |  |  |  |  |  | > 100 µM |  |
| O=[N+]([O-])c1cccc(C2=NN(c3ccccc3)C[N+](c3ccc(Br)cc3)=N2)c1 | > 100 µM | > 100 µM | > 100 µM |  | > 100 µM | > 100 µM |  | TGI (XF 498 CNS): > 100 µM |
| CCCCCCCCCCCCCC(=O)OCC(C[As](=O)(O)O)OC(=O)CCCCCCCCCCCCC (stereo not given) | > 100 µM | > 100 µM | > 100 µM | > 100 µM | > 100 µM | > 100 µM |  | TGI (RXF-631 renal): > 100 µM; TGI (XF 498 CNS): > 100 µM |
| CC1(C)S[C@@H]2[C@H](NC(=O)C3(N)CCCCC3)C(=O)N2[C@H]1C(=O)O |  |  |  |  |  |  | > 100 µM |  |
| COc1ccc(C2SC(N)=Nc3c2c(C)nn3C(=O)c2ccncc2)cc1OC (stereo not given) |  |  |  |  |  |  | > 10 µM |  |
| COC(=O)C1c2cc3c(cc2C(OC2OC(C)C(OC)C(C)(OC)C2OC)CC1(C)O)C(=O)c1c(O)cc2c(c1C3=O)OC1OC2(C)C(O)C([N+](C)(C)[O-])C1O (stereo not given) |  |  |  |  |  |  | 1.03 µM |  |
| CC(C)CCC1CC2C(=O)N(c3ccccc3)C(=O)C2c2[nH]c3ccccc3c21 (stereo not given) | 15 µM | 21.6 µM | 25.6 µM | 2.81 µM | 20.2 µM | 2.72 µM |  | TGI (RXF-631 renal): 13.8 µM; TGI (XF 498 CNS): 6.08 µM |
| CC(C)NC(=O)OCc1c(COC(=O)NC(C)C)c(-c2cc[n+](COC(=O)C3CC3)cc2)n2c1CCC2 |  |  |  |  |  |  | > 100 µM |  |
| CC(=O)N=C1N(/C=C2\C(=O)Oc3ccccc3C2=O)C(=O)/C(=C/c2cccc(Cl)c2Cl)N1C |  |  |  |  |  |  | > 100 µM |  |
| O=C(Nc1ccc2ncccc2c1)Nc1ccc2ncccc2c1 |  |  |  |  |  |  | > 100 µM |  |
| [N-]=[N+]=NC1(Cc2ccccc2)C(=O)c2cccc3c2N(CCC3)C1=O (stereo not given) | > 100 µM | > 100 µM |  | > 100 µM | > 100 µM | > 100 µM |  |  |
| O=C1CCC2(c3ccc(Cl)cc3)Nc3ncccc3N12 (stereo not given) | > 100 µM |  | > 100 µM | > 100 µM | > 100 µM |  |  | TGI (XF 498 CNS): > 100 µM |
| N#CN/C(N)=N/CO | > 87.8 µM | > 100 µM | > 100 µM | > 60.9 µM | > 100 µM | > 100 µM |  | TGI (RXF-631 renal): > 100 µM; TGI (XF 498 CNS): > 100 µM |
| C(=NCCN1CCOCC1)=NC1CCCCC1 |  |  |  |  |  |  | > 100 µM |  |
| CC1(C)COC(C2(C)C(=O)C=C(c3ccccc3)c3ccccc32)=N1 (stereo not given) | > 100 µM | > 100 µM |  | > 100 µM | > 100 µM |  |  | TGI (RXF-631 renal): > 100 µM |
| CC1(C)C(C#N)C1C1=C(N2CCOCC2)[C@]2(C)C(OC(=O)c3ccccc3)CC[C@@H]2C1 (stereo not given in full) |  |  |  |  |  |  | > 100 µM |  |
| O=C1CCC(Cl)=CC2CCCN12 (stereo not given) | > 100 µM |  | > 100 µM | > 100 µM | > 100 µM |  |  |  |
| COc1cccc(C2CC(C)(O)Oc3cc4c(cc32)OCO4)c1O (stereo not given) |  |  |  |  |  |  | 10.4 µM |  |
| C=C(Cl)C(=CCl)CCC(Br)C(C)(C)Cl (mixture of isomers) |  |  |  |  |  |  | > 10 µM |  |
| O=C(Nc1ccn(CCO)c(=O)n1)c1ccccc1 | > 100 µM | > 100 µM | > 100 µM | > 100 µM | > 100 µM | > 100 µM |  | TGI (RXF-631 renal): > 100 µM |
| O=[N+]([O-])c1ccc2[nH]c(=S)[nH]c(=S)c2c1 |  |  |  |  |  |  | > 100 µM |  |
| N.N.N.N.O=C([O-])CCl.O=C([O-])CCl.[Co+3].[O-][Cl+3]([O-])([O-])[O-] | > 100 µM |  | > 100 µM |  | > 100 µM |  |  | GI50 (DLD-1 colon): > 100 µM; GI50 (SNB-78 CNS): > 100 µM; GI50 (LXFL 529 NSCLC): > 100 µM |
| COc1cccc2c1C(=O)c1c(O)c3c(c(O)c1C2=O)C[C@@](O)(C(=O)CO)C[C@@H]3OC1CC(N)CC(C)O1 (stereo not given in full) | 1.18 µM and 2.67 µM | 0.906 µM and 0.445 µM | 1.73 µM and 2.02 µM | 0.167 µM and 0.299 µM | 0.951 µM | 0.202 µM and 0.129 µM | 0.274 µM and 0.132 µM | GI50 (MDA-N): 0.0272 µM; GI50 (DLD-1 colon): 0.127 µM; GI50 (HOP-18 NSCLC): 0.0713 µM; GI50 (SNB-78 CNS): 0.085 µM; GI50 (DMS 114 small cell lung): 0.0238 µM and 0.0476 µM; TGI (RXF-631 renal): 0.9 µM; TGI (SN12K1 renal): 0.0846 µM; GI50 (DMS 273 small cell lung): 0.0134 µM and 0.0303 µM; TGI (P388 leukemia): 0.588 µM; GI50 (XF 498 CNS): 0.0251 µM and 0.052 µM; TGI (XF 498 CNS): 0.144 µM and 0.101 µM |
